Columns and labels:
[1] = tested on: intracellular L. donovani; test: Intracellular L. donovani in THP-1 cells, dose-dilution high-content imaging assay; format: cell-based; conditions: for activity confirmation in dose-dilution assays: intracellular L. donovani EC50 / THP-1 CC50, result in words; for EC50: Leishmania donovani, THP-1 cells infected with L. donovani, 72 h, duplicate measurements, read-out: Intracellular L. donovani EC50 ± SD; for Selectivity Index (SI): SI = THP-1 CC50/Intracellular L. donovani EC50
Description: (§1) PMA-treated THP-1 human monocytic cells were seeded at 0.8 × 10^4 cells per well in a 384-well culture plate (Greiner Bio-One, Kremsmünster, Austria) in RPMI-1640 complete medium supplemented with 10% FBS. After 48 h of incubation at 37 °C in the presence of 5% CO2, the promastigotes of L. donovani that were incubated with lectin for 30 min at 28 °C were added to the cells at a parasite to cell ratio of 20:1. […] The negative control consisted of THP-1 infected with the parasite with only 0.5% DMSO. After 72 h, the cells that were infected and treated with the drug were washed with serum-free RPMI-1640 medium. The cells and parasites were stained using 5 μM DRAQ5 and 4% PFA. The images were acquired based on reading using an Operetta® automated microscope (PerkinElmer, Inc., Waltham, MA 02451 USA). They were further analyzed using Columbus^TM (PerkinElmer, Inc. Waltham, MA, USA) software to quantify parasite numbers, host cell numbers, and infection ratios. In brief, large-sized nucleus of host cells was first detected using Draq-5 (Thermo Fisher, Rockford, IL, USA) signal and the host cell boundary masking was performed using the low-intensity signals from cytosols (additional feature of Draq-5). Then the small-sized nucleus signal by Draq-5 was used to identify parasites within the area of masked host cell. Infection ratio (IR) was determined with the value of the number of infected cells divided by total number of cells and the average number of parasites per macrophage (P/φ) was defined by the value of the number of parasites divided by the number of infected cells in the acquired image.
(§2) All of the half maximal effective concentrations (EC50) and the half maximal cytotoxic concentrations (CC50) values were calculated using two independent experiments. The dose-response curves were fitted using GraphPad Prism 6 software (GraphPad Software, San Diego, CA, USA) by using a sigmoidal dose-response equation with a variable hill slope option.

[2] = Host cell cytotoxicity (CC50) in infected THP-1 cells, dose-dilution assay; format: cell-based; conditions: human, infected THP-1 host cells, read-out: THP-1 Cell CC50 ± SD
Description: as §1, §2

[3] = tested on: L. donovani promastigotes; test: L. donovani promastigote growth inhibition (resazurin); format: cell-based; conditions: Leishmania donovani, 72 h, 3 days exposure, read-out: L. donovani Promastigote EC50 ± SD
Description: (§3) L. donovani promastigote and T. b. brucei Lister 427 BSF growth inhibition were assayed by measuring the conversion of resazurin to resorufin. The assays were performed in 384-well plates that were seeded with L. donovani promastigotes or T. brucei 427 BSF (5 × 10^4 cells per well). After seeding, the parasites were exposed to the compounds for 3 days. Resazurin sodium salt (200 μM; R7017; Sigma-Aldrich, St. Louis, MO, USA) was then added, and the samples were incubated for 5 h. After incubation, the parasites were fixed using 4% paraformaldehyde, and the plates were analyzed using a Victor3^TM plate reader (PerkinElmer, Inc., Waltham, MA, USA) at 590 nm (emission) and 530 nm (excitation). […] Pentamidine was used for the T. b. brucei Lister 427 BSF growth inhibition assay.
as §2

[4] = tested on: intracellular L. donovani; test: Pilot high-content screening against intracellular L. donovani at 10 μM; format: cell-based; conditions: screening concentration 10 µM
Description: as §1, with “image. The average IR value of the negative control wells was calculated as 0.53. Compounds selected based on the screening results were further assessed in a dose-dilution manner (two-fold serial dilution for 20 points starting from 100 μM) using the same method.” for “image.”

[5] = tested on: T. b. brucei Lister 427 BSF; test: T. b. brucei Lister 427 bloodstream form growth inhibition (resazurin); format: cell-based; conditions: Trypanosoma brucei, 72 h, 3 days exposure, read-out: T. brucei Lister 427 BSF EC50 ± SD
Description: as §3, §2

L. donovani = test: VL mouse model (L. donovani-infected BALB/c mice); format: in vivo; conditions: miltefosine 30, Torin2 15, dactolisib 50, NVP-BGT226 5 mg/kg; for Inhibition of L. donovani In Vivo (%) (Mean ± SD): liver parasite burden vs vehicle, per os 5 days; for LDU in the Liver (Mean ± SD): once daily per os for 5 days from day 7 post-infection
Description: The highest dose for each compound without showing adverse effects was selected based on literature search. The vehicle for the compounds was 5% N-methylpyrrolidone, 15% polyvinylpyrrolidone, and 80% deionized water. Drug dosing solutions were freshly prepared each day. All drugs were administered once daily for 5 days via the per os route. On day 16 post-infection, all animals were humanely euthanized and assessed microscopically using Giemsa-stained liver imprints. Parasite burdens were measured by counting (blinded to treatment) the number of amastigotes per 1000 cell nuclei and multiplying this number by the liver weight (mg) (Leishman-Donovan Unit: LDU). The LDU values for the drug-treated samples were compared to those of the untreated samples, and the percent inhibition values were calculated.

## CN1[C@@H]2CC[C@H]1CC(OC(c1ccccc1)c1ccc(Cl)cc1)C2 (stereo partly drawn) [3-CPMT]
[1]
  activity confirmation in dose-dilution assays: either low activity (half maximal effective concentration, EC50) or high toxicity (CC50)

## C[C@@H]1[C@H](O)[C@@H](C)/C=C/C=C/C=C/C=C/C=C/C=C/C=C/[C@H](O[C@@H]2O[C@H](C)[C@@H](O)[C@H](N)[C@@H]2O)C[C@@H]2O[C@](O)(C[C@@H](O)C[C@@H](O)[C@H](O)CC[C@@H](O)C[C@@H](O)CC(=O)O[C@H]1C)C[C@H](O)[C@H]2C(=O)O [Amphotericin B]
[1]
  EC50: 0.34 ± 0.04 µM
  Selectivity Index (SI): >11.8
[2]
  CC50 at 72 h: > 4 µM
[3]
  EC50: 15 ± 3 nM

## CC[C@H](Nc1ncnc2[nH]cnc12)c1nc2cccc(F)c2c(=O)n1-c1ccccc1 [CAL-101]
[4]
  inhibition of intracellular parasite survival in screening: no direct effects on the parasite

## Cn1c(=O)n(-c2ccc(C(C)(C)C#N)cc2)c2c3cc(-c4cnc5ccccc5c4)ccc3ncc21 [Dactolisib (NVP-BEZ235)]
[1]
  EC50: 0.36 ± 0.07 µM
  Selectivity Index (SI): ≥277.8
[5]
  EC50: 120 ± 10 nM
L. donovani
  Inhibition of L. donovani In Vivo (%) (Mean ± SD): 53 ± 9.50%
  LDU in the Liver (Mean ± SD): 527 ± 108 LDU
L. donovani; listed as dactolisib
  Inhibition of L. donovani In Vivo (%) (Mean ± SD): 53%
[2]
  CC50 at 72 h: > 100 µM
[4]
  inhibition of intracellular parasite survival in screening: found active
[3]
  EC50: 380 ± 60 nM

## Cc1cc(Nc2cc(N3CCN(C)CC3)nc(/C=C/c3ccccc3)n2)n[nH]1 [ENMD-2076]
[1]
  activity confirmation in dose-dilution assays: either low activity (half maximal effective concentration, EC50) or high toxicity (CC50)

## Fc1ccc(C(OCCN2CCN(CCCc3ccccc3)CC2)c2ccc(F)cc2)cc1 [GBR12909]
[1]
  activity confirmation in dose-dilution assays: either low activity (half maximal effective concentration, EC50) or high toxicity (CC50)

## O=S(=O)(NCCNC/C=C/c1ccc(Br)cc1)c1cccc2cnccc12 [H89]
[1]
  activity confirmation in dose-dilution assays: either low activity (half maximal effective concentration, EC50) or high toxicity (CC50)

## CCCCCCCCCCCCCCCCOP(=O)([O-])OCC[N+](C)(C)C [Miltefosine]
[1]
  EC50: 4.81 ± 0.81 µM
L. donovani
  Inhibition of L. donovani In Vivo (%) (Mean ± SD): 87 ± 2.13%
  LDU in the Liver (Mean ± SD): 142 ± 24 LDU
[2]
  CC50 at 72 h: > 40 µM

## COc1ccccc1C1(O)CCN(CCCn2c3ccccc3c3ccccc32)CC1 [NNC05–2090]
[1]
  activity confirmation in dose-dilution assays: confirmed to be active

## CCn1nnc2c(N3CCOCC3)nc(-c3ccc(NC(=O)Nc4ccc(C(=O)N5CCN(C)CC5)cc4)cc3)nc21 [PKI-402]
[1]
  EC50: 13.4 ± 2.35 µM
  Selectivity Index (SI): 2.1
[5]
  EC50: 260 ± 20 nM
[2]
  CC50 at 72 h: 28.5 ± 1.2 µM
[3]
  EC50: 490 ± 220 nM

## N=C(N)c1ccc(OCCCCCOc2ccc(C(=N)N)cc2)cc1 [Pentamidine]
[5]
  EC50: 150 ± 10 nM

## [O-][S+](c1ccccc1)c1ccc2nnnn2n1 (stereo not drawn) [Ro 106–9920]
[1]
  activity confirmation in dose-dilution assays: confirmed to be active

## COc1ccc(CCCOC(Cn2ccnc2)c2ccc(OC)cc2)cc1 (stereo not drawn) [SKF 96365]
[1]
  activity confirmation in dose-dilution assays: confirmed to be active

## CC(C)n1nc(-c2ccc3oc(N)nc3c2)c2c(N)ncnc21 [Sapanisertib]
[1]
  EC50: 6.39 ± 1.12 µM
[5]
  EC50: 5340 ± 980 nM
[2]
  CC50 at 72 h: > 100 µM
[3]
  EC50: 7460 ± 1040 nM

## CNC(=O)Nc1ccc(-c2nc(N3CC4CCC(C3)O4)c3cnn(C4CCC5(CC4)OCCO5)c3n2)cc1 [WYE-125132]
[1]
  EC50: 2.26 ± 0.71 µM
  Selectivity Index (SI): 19
[5]
  EC50: 120 ± 10 nM
[2]
  CC50 at 72 h: 43.3 ± 2.7 µM
[3]
  EC50: 360 ± 40 nM

## CC(C)c1ccc(C(=O)c2cccs2)c(SCCCCCCCCN(C)C)n1 [Y29794]
[1]
  activity confirmation in dose-dilution assays: confirmed to be active

## CN(C)C/C=C/C(=O)Nc1cc2c(Nc3ccc(F)c(Cl)c3)ncnc2cc1O[C@H]1CCOC1 [afatinib]
[1]
  activity confirmation in dose-dilution assays: either low activity (half maximal effective concentration, EC50) or high toxicity (CC50)

## COc1cc2c(Oc3ccc4[nH]c(C)cc4c3F)ncnc2cc1OCCCN1CCCC1 [cediranib]
[1]
  activity confirmation in dose-dilution assays: either low activity (half maximal effective concentration, EC50) or high toxicity (CC50)

## CO[C@H]1C[C@@H]2CC[C@@H](C)[C@@](O)(O2)C(=O)C(=O)N2CCCC[C@H]2C(=O)O[C@H]([C@H](C)C[C@@H]2CC[C@@H](OP(C)(C)=O)[C@H](OC)C2)CC(=O)[C@H](C)/C=C(\C)[C@@H](O)[C@@H](OC)C(=O)[C@H](C)C[C@H](C)/C=C/C=C/C=C/1C [deforolimus]
[4]
  inhibition of intracellular parasite survival in screening: did not show potent inhibition

## CO[C@H]1C[C@@H]2CC[C@@H](C)[C@@](O)(O2)C(=O)C(=O)N2CCCC[C@H]2C(=O)O[C@H]([C@H](C)C[C@@H]2CC[C@@H](OCCO)[C@H](OC)C2)CC(=O)[C@H](C)/C=C(\C)[C@@H](O)[C@@H](OC)C(=O)[C@H](C)C[C@H](C)/C=C/C=C/C=C/1C [everolimus]
[4]
  inhibition of intracellular parasite survival in screening: did not show potent inhibition

## S=C=Nc1cccc(C2(N3CCCCC3)CCCCC2)c1 [metaphit]
[1]
  activity confirmation in dose-dilution assays: confirmed to be active

## CO[C@H]1C[C@@H]2CC[C@@H](C)[C@@](O)(O2)C(=O)C(=O)N2CCCC[C@H]2C(=O)O[C@H]([C@H](C)C[C@@H]2CC[C@@H](O)[C@H](OC)C2)CC(=O)[C@H](C)/C=C(\C)[C@@H](O)[C@@H](OC)C(=O)[C@H](C)C[C@H](C)/C=C/C=C/C=C/1C [rapamycin]
[4]
  inhibition of intracellular parasite survival in screening: did not show potent inhibition

## CO[C@H]1C[C@@H]2CC[C@@H](C)[C@@](O)(O2)C(=O)C(=O)N2CCCC[C@H]2C(=O)O[C@H]([C@H](C)C[C@@H]2CC[C@@H](OC(=O)C(C)(CO)CO)[C@H](OC)C2)CC(=O)[C@H](C)/C=C(\C)[C@@H](O)[C@@H](OC)C(=O)[C@H](C)C[C@H](C)/C=C/C=C/C=C/1C [temsirolimus]
[4]
  inhibition of intracellular parasite survival in screening: did not show potent inhibition

From publication PMC7221892, “In Vitro and in Vivo Activity of mTOR Kinase and PI3K Inhibitors Against Leishmania donovani and Trypanosoma brucei” (Molecules, 2020)
